Source: article PMC4479967 (Journal of molecular neuroscience : MN, 2015)
Entries after “also recorded” stand apart in the source; their conditions may differ.

Assays:
[1] = tested on: AR42J cells; settings: cited from earlier work
[2] = tested on: SCLC; settings: basal or CCK-8-stimulated growth; ref Moody and Jensen, 2001; cited from earlier work
[3] = tested on: NCI-H727 cells; assay: MTT proliferation assay, NCI-H727 cells
[4] = tested on: reactive oxygen species in NCI-H727 cells; assay: Reactive oxygen species in NCI-H727 cells; format: cell-based, human; settings: CI-988 (10 µM, Table II), Tiron unpublished (T. Moody)
[5] = tested on: NCI-H727 cells; assay: Clonogenic assay, clonal growth of NCI-H727 cells; settings: for Effect on CCK-8-stimulated increase in colony number: CI-988 3 µM or gefitinib 1 µM, CCK-8 10 nM
[6] = tested on: cytosolic Ca2+ in NCI-H727 cells; assay: Cytosolic Ca2+ in Fura-2AM loaded NCI-H727 cells; format: cell-based, human; settings: for Effect on basal cytosolic Ca2+: CI-988 1 µM (Fig. 3D), L-364,718 concentration not printed (Fig. 3C)
[7] = tested on: ERK tyrosine phosphorylation in NCI-H727 cells; assay: ERK tyrosine phosphorylation; format: cell-based, human; settings: for Inhibition of CCK-8-induced ERK tyrosine phosphorylation: Fig. 2C; for Inhibition of CCK-8-induced ERK phosphorylation, in words / Inhibition of CCK-8-induced ERK phosphorylation (T. Moody, unpublished): NCI-H727 cells; for Inhibition of CCK-8-induced ERK phosphorylation, in words: concentration not given at this place
[8] = tested on: EGFR tyrosine phosphorylation in NCI-H727 cells; assay: EGFR tyrosine phosphorylation; format: cell-based, human; settings: for Significance of inhibition of CCK-8-induced EGFR tyrosine phosphorylation: Fig. 2B; for Inhibition of CCK-8-induced EGFR tyrosine phosphorylation, in words: NCI-H727 cells, concentration not given at this place
[9] = tested on: TGF α secretion from NCI-H727 cells; assay: TGF α secretion from NCI-H727 cells; format: cell-based, human; settings: preliminary data, T. Moody unpublished
[10] = tested on: SCLC cells; settings: ref Staley et al., 1990; cited from earlier work
[11] = tested on: CCK1R; settings: ref Jensen et al., 1989; cited from earlier work
[12] = tested on: CCK2R; settings: ref Innes and Snyder, 1980; cited from earlier work
[13] = tested on: GLC19 cells; settings: literature discussion, ref Sethi et al., 1993; cited from earlier work
[14] = tested on: NCI-H510 cells; settings: 0.1 µM; ref Sethi et al., 1993; cited from earlier work
[15] = cited from earlier work
[16] = 10 µM as printed in legend (Fig. 4C)
[17] = 5 mM NAC or Tiron (Fig. 4A, B), p < 0.05 relative to CCK-8

Molecule: COc1cc2ncnc(Nc3cccc(Cl)c3)c2cc1OC [AG1478]
- Effect on CCK-8-induced EGFR and ERK tyrosine phosphorylation in AR42J cells ([1]; ref Piiper et al., 2003): inhibited

Molecule: C[C@](Cc1c[nH]c2ccccc12)(NC(=O)OC1[C@H]2C[C@@H]3C[C@@H](C[C@H]1C3)C2)C(=O)NC[C@H](NC(=O)CCC(=O)O)c1ccccc1 (stereo partly drawn) [CI-988]
- Effect on SCLC growth [2]: inhibit
- Potentiation of growth inhibitory effects of gefitinib ([3]; NCI-H727 cells): potentiated the growth inhibitory effects of gefitinib
- Inhibition of CCK-8-induced ROS increase, in words [4]: blocked significantly; also recorded: inhibited
- Colony number + 10 nM CCK-8 ([5]; CI-988 3 uM + 10 nM CCK-8 (CCK-8 alone 74 ± 9), mean ± S.D. of 3 determinations): 44 ± 5
- Effect on CCK-8-stimulated increase in colony number [5]: reversed
- Colony number ([5]; CI-988 3 uM, no CCK-8, control 42± 6, mean ± S.D. of 3 determinations, 2 weeks): 21 ± 3
- Reduction of colony number ([5]; CI-988 (3 µM), no CCK-8): 50%
- Effect on NCI-H727 proliferation, in words ([5]; NCI-H727 cells): inhibit proliferation
- Effect on basal growth or growth stimulated by CCK-8, in words ([5]; NCI-H727 cells): inhibited the basal growth of NCI-H727 cells or that stimulated by CCK-8
- Effect on basal cytosolic Ca2+ [6]: no effect
- Inhibition of CCK-8-induced ERK tyrosine phosphorylation ([7]; CI-988 1 µM): not 1 µM
- Inhibition of CCK-8-induced ERK tyrosine phosphorylation ([7]; CI-988 10 µM, p < 0.05 relative to CCK-8): significantly inhibited
- Inhibition of CCK-8-induced ERK phosphorylation, in words [7]: significantly inhibited
- Inhibition of CCK-8-induced ERK phosphorylation (T. Moody, unpublished) [7]: blocked
- Effect on total ERK ([7]; Western blot, Fig. 2A): no effect
- Antagonism of gastrin-17-induced ERK tyrosine phosphorylation ([7]; data not shown): antagonized
- Inhibition of CCK-8-induced EGFR tyrosine phosphorylation ([8]; CI-988 1 µM vs 0.1 µM CCK-8 (Fig. 2A)): weakly
- Significance of inhibition of CCK-8-induced EGFR tyrosine phosphorylation ([8]; CI-988 1 µM): not 1 µM
- Inhibition of CCK-8-induced EGFR tyrosine phosphorylation ([8]; CI-988 10 µM vs 0.1 µM CCK-8 (Fig. 2A)): strongly
- Significance of inhibition of CCK-8-induced EGFR tyrosine phosphorylation ([8]; CI-988 10 µM, p < 0.01 relative to CCK-8): significantly inhibited
- Inhibition of CCK-8-induced EGFR tyrosine phosphorylation, in words [8]: blocked; also recorded: significantly inhibited
- Effect on total EGFR ([8]; Western blot, Fig. 2A): no effect
- Antagonism of gastrin-17-induced EGFR tyrosine phosphorylation ([8]; data not shown): antagonized

Molecule: CNC(=O)[C@H](Cc1c[nH]c2ccccc12)NC(=O)[C@@H](CC(=O)NO)CC(C)C [GM6001]
- Inhibition of CCK-8-induced ERK phosphorylation, in words [7]: significantly inhibited
- Effect on CCK-8-stimulated secretion of TGF α [9]: inhibits
- Effect on basal EGFR tyrosine phosphorylation [8, 16]: no effect
- Inhibition of CCK-8-induced EGFR tyrosine phosphorylation ([8]; GM6001 1 µM as printed in text (Fig. 4C, D), p < 0.01 relative to CCK-8): significantly inhibited
- Inhibition of CCK-8-induced EGFR transactivation ([8]; GM6001 10 µM as printed in legend of Fig. 4C): inhibited the increase in EGFR transactivation
- Inhibition of CCK-8-induced EGFR tyrosine phosphorylation, in words [8]: blocked; also recorded: significantly inhibited

Molecule: COc1cc2ncnc(Nc3ccc(F)c(Cl)c3)c2cc1OCCCN1CCOCC1 [Gefitinib]
- Increase in cytotoxicity of gefitinib in presence of CI-988 ([3]; gefitinib with CI-988): approximately an order of magnitude
- Effect on CCK-8-stimulated increase in colony number [5]: reversed
- Effect on basal growth or growth stimulated by CCK-8, in words ([5]; NCI-H727 cells): inhibited the basal growth of NCI-H727 cells or that stimulated by CCK-8
- Reduction of colony number ([5]; gefitinib (1 µM), no CCK-8): 37%

Molecule: CN1C(=O)[C@@H](NC(=O)c2cc3ccccc3[nH]2)N=C(c2ccccc2)c2ccccc21 [L-364,718]
- Antagonism of effects of CCK-8 on SCLC cells [10]: not L-364,718
- CCK1R antagonism, in words [11]: antagonized
- Effect on basal cytosolic Ca2+ [6]: no effect

Molecule: Cc1cccc(NC(=O)N[C@@H]2N=C(c3ccccc3)c3ccccc3N(C)C2=O)c1 [L-365,260]
- Effect on SCLC growth [2]: inhibit
- Antagonism of effects of CCK-8 on SCLC cells [10]: blocked
- CCK2R antagonism, in words [12]: antagonized

Molecule: CC(=O)N[C@@H](CS)C(=O)O [NAC, N-acetylcysteine]
- Effect on basal EGFR tyrosine phosphorylation ([8]; 5 mM (Fig. 4A)): no effect
- Inhibition of CCK-8-induced EGFR transactivation [8, 17]: inhibited significantly; also recorded: inhibited the increase in EGFR transactivation

Molecule: COc1cccc(-c2cc(=O)c3ccccc3o2)c1N [PD98059]
- Inhibition of CCK-8-induced ERK phosphorylation (T. Moody, unpublished) [7]: blocked

Molecule: CC(C)(C)n1nc(-c2ccc(Cl)cc2)c2c(N)ncnc21 [PP2]
- Effect on CCK-8-stimulated increase in P-Src and P-ERK in AR42J cells ([1]; ref Ferrand et al., 2006): inhibited
- Inhibition of CCK-8-induced ERK phosphorylation, in words [7]: significantly inhibited
- Inhibition of CCK-8-induced EGFR tyrosine phosphorylation ([8]; 10 µM PP2 (Fig. 4C, D), p < 0.01 relative to CCK-8): significantly inhibited; also recorded: inhibited the increase in EGFR transactivation
- Effect on basal EGFR tyrosine phosphorylation [8, 16]: no effect
- Inhibition of CCK-8-induced EGFR tyrosine phosphorylation, in words [8]: blocked; also recorded: significantly inhibited

Molecule: O=S(=O)(O)c1cc(O)c(O)c(S(=O)(=O)O)c1 [Tiron]
- Inhibition of CCK-8-induced ROS increase, in words [4]: inhibited
- Effect on basal EGFR tyrosine phosphorylation ([8]; 5 mM (Fig. 4A)): no effect
- Inhibition of CCK-8-induced EGFR transactivation [8, 17]: inhibited significantly; also recorded: inhibited the increase in EGFR transactivation
- Inhibition of CCK-8-induced EGFR tyrosine phosphorylation, in words [8]: inhibited
- Inhibition of CCK-8-induced EGFR tyrosine phosphorylation, in words ([8]; listed as tiron): blocked

Molecule: EGF: epidermal growth factor, EGFR ligand (NSDSECPLSHDGYCLHDGVCMYIEALDKYACNCVVGYIGERCQYRDLKWWELR; UniProt P01133 971-1023, looked up)
- EGFR tyrosine phosphorylation, in words ([8]; 0.1 µM (100 nM) ligand, 2 min, NCI-H727): strongly

Molecule: gastrin
- Effect on cytosolic Ca2+ in GLC19 cells [13]: no effect
- Effect on cytosolic Ca2+ in NCI-H510 cells [14]: increased cytosolic Ca^2+
- Effect on cytosolic Ca2+, in words ([6]; 10 nM, Fura-2AM, 37°C, representative of 3 others (Fig. 3A, B)): increased the cytosolic Ca^2+
- Effect on heparin binding (HB) EGF ([15]; PKC-dependent, ref Sinclair et al., 2004): increases
- Effect on COX-2 and prostaglandin E2 expression ([15]; colon cancer cells, ref Colucci et al., 2005): increases COX-2 and prostaglandin E2 expression
- Effect on MMP9 expression ([15]; gastric epithelial cells, ref Wroblewski et al., 2002): increases
- Effect on ELK-1 and COX-2 expression ([15]; intestinal epithelial cells, ref Guo et al., 2002): increased ELK-1 and COX-2 expression
- Effect on c-fos expression ([15]; ref Stepan et al., 1999): increases c-fos expression
- Effect on expression of HB-EGF and amphiregulin ([15]; ref Tsutsui et al., 1997): increases
